Ring closure, isolated yield data for nine compounds are collected here from patent US7163939.

Where two headings read alike, the source gives them in different places.

For the data set the following is noted: rcm bond.

As for `N#Cc1ncc2nc1OCC=CCOc1ccc(Cl)cc1NC(=O)N2`, the ring closure, isolated yield (from C=CCOc1ccc(Cl)cc1NC(=O)Nc1cnc(C#N)c(OCC=C)n1, 14-membered ring, Grubbs II (15 mol%), CH2Cl2, 1.8 mM, 40.0 °C, 16.0 h) came out at 54%.

Consider `C[Si](C)(C)CCOCOc1cc2c(cc1Cl)NC(=O)Nc1cnc(C#N)c(n1)OCCC=CCO2`, for which the ring closure, isolated yield (from C=CCCOc1nc(NC(=O)Nc2cc(Cl)c(OCOCC[Si](C)(C)C)cc2OCC=C)cnc1C#N, 15-membered ring, Grubbs II (10 mol%), DMSO workup, CH2Cl2, 1.5 mM, 25.0 °C, 16.0 h) is 92%.

Consider `O=C1Nc2cncc(n2)OCCC=CCOc2ccc(Cl)cc2N1`, for which the ring closure, isolated yield (from C=CCCOc1cncc(NC(=O)Nc2cc(Cl)ccc2OCC=C)n1, 15-membered ring, Grubbs II (15 mol%), CH2Cl2, 2.4 mM, 50.0 °C, 16.0 h) turned out to be 40%.

In turn, `CC1C=CCCOc2nc(cnc2C#N)NC(=O)Nc2cc(Cl)ccc2O1` (stereo not drawn) yielded a ring closure, isolated yield (from C=CCCOc1nc(NC(=O)Nc2cc(Cl)ccc2OC(C)C=C)cnc1C#N, 15-membered ring, Grubbs II (10 mol%), CH2Cl2, 1.97 mM, 25.0 °C, 36.0 h) of 63%.

As for `Cc1cc(Cl)c2c(c1)NC(=O)Nc1cnc(C#N)c(n1)OCCC=CCO2`, the ring closure, isolated yield (from C=CCCOc1nc(NC(=O)Nc2cc(C)cc(Br)c2OCC=C)cnc1C#N, 15-membered ring, Grubbs II (10 mol%), CH2Cl2, 2.11 mM, 40.0 °C, 16.0 h) was determined as 72%.

In turn, `N#Cc1ncc2nc1OCCC=CCOc1cc(N)c(Cl)cc1NC(=O)N2` returned a ring closure, isolated yield (from C=CCCOc1nc(NC(=O)Nc2cc(Cl)c(N)cc2OCC=C)cnc1C#N, 15-membered ring, Grubbs II (10 mol%), DMSO workup, CH2Cl2, 1.96 mM, 25.0 °C, 16.0 h) of 77%.

Consider `N#Cc1ncc2nc1OCCC=CCOc1ncc(Cl)cc1NC(=O)N2`, for which, for the setting “from C=CCCOc1nc(NC(=O)Nc2cc(Cl)cnc2OCC=C)cnc1C#N, 15-membered ring, Grubbs II (15 mol%), CH2Cl2, 2.75 mM, 40.0 °C, 16.0 h”, the ring closure, isolated yield worked out at 36%.

In turn, `N#Cc1ncc2nc1OCCC=CCOc1c(F)cc(Cl)cc1NC(=O)N2` had a ring closure, isolated yield (from C=CCCOc1nc(NC(=O)Nc2cc(Br)cc(F)c2OCC=C)cnc1C#N, 15-membered ring, Grubbs II (10 mol%), CH2Cl2, 1.47 mM, 25.0 °C, 6.0 h) of 64%.

The compound “2-oxo-18-[3-(tetrahydro-2H-pyran-2-yloxy)propyl]-2,3,11,14-tetrahydro-1H,10H-8,4-epiazeno-9,15,1,3,6-benzodioxatriazacycloheptadecine-7-carbonitrile” returned a ring closure, isolated yield (15-membered ring) of 37%.
